From patent publication US7867983B2, “Methods to protect skeletal muscle against injury” (The University of Connecticut, priority 2007, dated 2011) come the findings set out here.

For experiment [1], the system named is skeletal muscle ischemia/reperfusion injury. As to the kind of experiment: Mouse hindlimb ischemia and reperfusion model, Evans Blue dye staining of gastrocnemius muscle, wild-type mice. Format: in vivo, mouse (C57BL6 wild-type). The conditions noted are these: WT mice; for EBD-positive area: ligand alone i.p. 2 h before 90 min ischemia, PBS vehicle 28%±6%; for EBD-positive area, agonist plus DPCPX: A1 antagonist DPCPX 0.2 mg/kg i.p. 30 min before agonist; for EBD-positive area, agonist plus MRS1191: A3 antagonist MRS1191 0.05 mg/kg i.p. 30 min before agonist. How it is done: Mouse Hindlimb Ischemia and Reperfusion Model: After 2.5- to 3-month-old wild-type (WT; C57BL6 strain) or PLC β2/β3 knockout mice (in C57BL6 background), each weighing about 23-25 g, were sedated with anesthetic (pentobarbital 50 mg/kg was given by intraperitoneal [i.p.] injection), their right or left hindlimbs (used randomly) were elevated briefly to minimize retained blood before being subjected to ischemia. Ischemia was induced by placement of a constrictor band (Latex O-Rings, Miltex Instruments, York, Pa.) above the greater trochanter with a McGiveney Hemorrhoidal Ligator (7 in long; Miltex). After 90 minutes of warm ischemia at 37° C., the constrictor was removed to allow reperfusion for 24 hours. The mice were continuously maintained on a 37° C. warming pad (Physitemp Instruments Inc, Clifton, N.J.) during the reperfusion. After the mice were killed by anesthetic overdose, the gastrocnemius muscle was quickly frozen, cut into three slices separated by 2-3 mm, and embedded in Shandon Cryomatrix (polyvinyl alcohol 10%, polyethylene glycol 4%; Anatomical Pathology U.S.A., Pittsburgh, Pa.). Each slice was processed as one 10 μm section on a Thermo Electron/Shandon Cryotome (Anatomical Pathology), fixed in ice-cold acetone, air dried, and washed in phosphate-buffered saline (PBS). Each 10 μm section had seven fields. Gastrocnemius was used because of its high proportion of fast-twitch muscle, which is prone to ischemia and reperfusion injury.
Quantification of Skeletal Muscle Injury: Evans Blue dye (EBD), prepared as a 1% wt/vol solution to yielding 1 mg of EBD/10 g body weight), was given via a separate i.p. injection 2.5 hours before the induction of ischemia. EBD stained only injured muscle and EBD-positive cells were quantified. The percent EBD-positive cells in each field was averaged with those from all seven fields within one 10 μm section. The averaged fraction of EBD-positive cells in each 10 μm section was similar among the three sections. Each 10 μm section was also stained with rabbit polyclonal anti-skeletal muscle actin antibodies (ab15265; Abcam Inc, Cambridge, Mass.) and goat polyclonal anti-rabbit IgG conjugated with fluorescein isothiocyanate. Sections were mounted, and their cross sections were viewed with fluorescent microscopy (Evans Blue dye [EBD]-positive cells via a DM580 band pass filter 510-560 nm with emission of 590 nm; fluorescein isothiocyanate cells via a DM510 filter of 450-490 nm with emission at 520 nm). Each field was counted at 20× magnification and their images captured via the two filters for quantification of muscle injury as follows. Images were acquired and stored as JPEG files with a Macrofire camera (Macrofire 1.0, Optronics, Goleta, Calif.). The ImageProPlus Program (version 5.0, Media Cybernetics, Inc, Silver Spring, Md.) was used for the quantitative determination. The percentage of EBD-positive areas was calculated by dividing the area of EBD staining by the total muscle cells, a quantity defined as the total area stained by anti-skeletal muscle actin antibodies and was identical to the total area in each field minus the area not occupied by any cell. The actin-stained area included EBD-positive area, as shown in superimposed EBD- and actin antibody-stained images. Serum creatine kinase (CK) activity was measured with a previously described procedure. The fraction of skeletal muscle staining positive for EBD represented a direct determination of the muscle that was injured, and the serum CK level provided a circulating index of the extent of skeletal muscle injury. Both are established and accepted methods to quantify skeletal muscle injury.
Protocol for Administration of Adenosine Receptor Agonist and Antagonist. […]

The test system is the same in experiment [2]. As to the kind of experiment: Mouse hindlimb ischemia and reperfusion model, Evans Blue dye staining, PLC β2/β3-null mice. Format: in vivo. The conditions noted are these: agonist alone i.p. before ischemia/reperfusion, mean±SE, PBS 23.4%±4%. How it is done: Mouse Hindlimb Ischemia and Reperfusion Model: After 2.5- to 3-month-old wild-type (WT; C57BL6 strain) or PLC β2/β3 knockout mice (in C57BL6 background), each weighing about 23-25 g, were sedated with anesthetic (pentobarbital 50 mg/kg was given by intraperitoneal [i.p.] injection), their right or left hindlimbs (used randomly) were elevated briefly to minimize retained blood before being subjected to ischemia. Ischemia was induced by placement of a constrictor band (Latex O-Rings, Miltex Instruments, York, Pa.) above the greater trochanter with a McGiveney Hemorrhoidal Ligator (7 in long; Miltex). After 90 minutes of warm ischemia at 37° C., the constrictor was removed to allow reperfusion for 24 hours. The mice were continuously maintained on a 37° C. warming pad (Physitemp Instruments Inc, Clifton, N.J.) during the reperfusion. […]
Quantification of Skeletal Muscle Injury: Evans Blue dye (EBD), prepared as a 1% wt/vol solution to yielding 1 mg of EBD/10 g body weight), was given via a separate i.p. injection 2.5 hours before the induction of ischemia. EBD stained only injured muscle and EBD-positive cells were quantified. […] Each field was counted at 20× magnification and their images captured via the two filters for quantification of muscle injury as follows. […] The ImageProPlus Program (version 5.0, Media Cybernetics, Inc, Silver Spring, Md.) was used for the quantitative determination. The percentage of EBD-positive areas was calculated by dividing the area of EBD staining by the total muscle cells, a quantity defined as the total area stained by anti-skeletal muscle actin antibodies and was identical to the total area in each field minus the area not occupied by any cell. […] Serum creatine kinase (CK) activity was measured with a previously described procedure. […] Both are established and accepted methods to quantify skeletal muscle injury. […]

The subject of experiment [3] is exercise-induced skeletal muscle injury. As to the kind of experiment: 15% downhill treadmill exercise-induced skeletal muscle injury, beta-sarcoglycan-null mice (limb-girdle muscular dystrophy model). It is filed as in vivo, mouse (beta-sarcoglycan-null). The conditions noted are these: beta-sarcoglycan-null mice treated, then exercised. The source says: (§1) Wild type (WT), beta-sarcoglycan-deficient, and PLCβ2/β3-null mice were all 8-10 weeks old and have similar body weights. Beta-sarcoglycan-null mice have been developed as a mouse model of limb-girdle muscular dystrophy. PLCβ2/β3-null mice have been used as a model to determine the physiologic role of these enzyme isoforms in mediating the effect of various adenosine receptor subtypes. The 15% downhill treadmill exercise is an established method to cause exertion-related skeletal muscle injury in rodents and has been used to gauge the success of therapy aimed at reducing skeletal muscle injury in mouse models of muscular dystrophy. Mice were exercised to exhaustion and for similar amount of time. […] Thus, only serum CK activity was used to quantify the extent of skeletal muscle injury in these normal WT mice. In the beta-sarcoglycan-null mice, there was already a significant level of skeletal muscle damage at baseline (in the absence of imposed physical exercise, EBD-positive area was 9.7±2.0%, n=28 mice, SE; serum CK was 2363±310, U/L, n=30 mice, SE). Both EBD staining and serum CK were used to quantify the extent of skeletal muscle injury.
Beta-sarcoglycan-null mice were used as a model of Limb-Girdle Muscular Dystrophy. […] The extent of skeletal muscle injury was determined by (FIG. 10) serum CK level and (FIG. 11) percentage of EBD-stained area. […]

For experiment [4] the test system is unchanged. As to the kind of experiment: 15% downhill treadmill exercise-induced skeletal muscle injury, wild-type mice. The conditions noted are these: wild-type mice injected with agonist, then exercised; P<0.05 vs vehicle. Format: in vivo, mouse (wild type).
Text: as §1
Adult wild-type mice were injected with the A3 receptor agonist Cl-IBMECA. They were then subjected to exercise, and their skeletal muscle injuries were quantified using serum CK was used as a marker of muscle injury. […]

Experiment [5] shares this test system. As to the kind of experiment: 15% downhill treadmill exercise-induced skeletal muscle injury, PLCβ2/β3-null mice. The conditions noted are these: PLCβ2/β3-null mice treated, then exercised; P>0.1 vs PBS. It is filed as in vivo, mouse (PLCβ2/β3-null).
Text: as §1
PLCβ2/β3-null mice were used as a model to determine the role of PLCβ2/β3 in mediating the protective effect on exercise-induced injury by Cl-IBMECA. […] Serum CK levels were used to quantify the extent of skeletal muscle injury. […]

[6] abbreviates: 90 min ischemia, 24 h reperfusion, mean±SE.

On to `CCOC(=O)C1=C(C)NC(c2ccccc2)=C(C(=O)OCc2ccccc2)C1C#Cc1ccccc1` (racemic) [MRS1191, 3-ethyl 5-benzyl-2-methyl-6-phenyl-4-phenylethynyl-1,4-(±)-dihydropyridine-3,5-dicarboxylate], for which the EBD-positive area in experiment [1] (24 h reperfusion, mean±SE) was 23%±4.4%.
For the compound `OC[C@H]1O[C@@H](n2cnc3c(NC4CCCC4)nc(Cl)nc32)[C@H](O)[C@@H]1O` [CCPA, 2-chloro-N^6-cyclopentyladenosine], the EBD-positive area in experiment [2] is 8.5%±2.5%; in experiment [1] (24 h reperfusion, mean±SE), 10.8%±2%. Further, the “EBD-positive area, agonist plus DPCPX” value in experiment [1] (setting [6]) is given as 22%±3.3%. In experiment [1] (setting [6]), the “EBD-positive area, agonist plus MRS1191” value is given as 12.2%±2.4%.
For the compound `CCNC(=O)[C@H]1O[C@@H](n2cnc3c(N)nc(NCCc4ccc(CCC(=O)O)cc4)nc32)[C@H](O)[C@@H]1O` [CGS21680, 2-p-(2-Carboxyethyl)phenethylamino-5′-N-ethylcarboxamidoadenosine], the EBD-positive area in experiment [2] is listed as 4%±1.1%. Besides, in experiment [1] (setting [6]), the “EBD-positive area, agonist plus DPCPX” value is reported as 14.7%±2.3% and the “EBD-positive area, agonist plus MRS1191” value was 2.4%±1.25%. Moreover, the “EBD-positive area, agonist plus SCH 442416” value in experiment [1] (A2A antagonist SCH 442416 0.017 mg/kg i.p. 30 min before agonist, 90 min ischemia, 24 h reperfusion, mean±SE) is listed as 26%±4%. Moreover, the EBD-positive area in experiment [1] (24 h reperfusion, mean±SE) was 6.6%±3.5%.
Take `CNC(=O)[C@H]1O[C@@H](n2cnc3c(NCc4cccc(I)c4)nc(Cl)nc32)[C@H](O)[C@@H]1O` [Cl-IBMECA, 2-chloro-N^6-(3-iodobenzyl)adenosine-5′-N-methyluronamide]: the “serum CK level vs. vehicle after exercise” value in experiment [3] (P=0.0066 vs vehicle) was “reduction in the serum CK level”. Moreover, in experiment [3] (P=0.03 vs vehicle), the “percentage of EBD-positive area vs. vehicle after exercise” value was “reduced the percentage of EBD-positive area”. In addition, the “serum CK vs. vehicle after exercise” value in experiment [4] was “reduction in the serum CK”. In experiment [5], the “serum CK level vs. PBS after exercise” value was “unable to induce a reduction in the serum CK level”. Also, the EBD-positive area in experiment [2] is listed as 22%±3.6%. Also, in experiment [1] (setting [6]), the “EBD-positive area, agonist plus DPCPX” value is given as 4%±1.6% and the “EBD-positive area, agonist plus MRS1191” value is given as 21.5%±3.5%. The EBD-positive area in experiment [1] (24 h reperfusion, mean±SE) was 5.4%±2.6%.
In the case of `CCCn1c(=O)c2[nH]c(C3CCCC3)nc2n(CCC)c1=O` [DPCPX], the EBD-positive area in experiment [1] (24 h reperfusion, mean±SE) is 19.3%±4.4%.
As to `C[C@H](Cc1ccccc1)Nc1ncnc2c1ncn2[C@@H]1O[C@H](CO)[C@@H](O)[C@H]1O` [R-PIA], in experiment [1] (given prior to ischemia and reperfusion, 0.05 mg/kg i.p.), the “extent of injury (EBD staining), result in words” value is given as “significant reduction in the extent of injury”.
